Where two headings read alike, the source gives them in different places.
Molecular target: T1, human recombinant mGluR5 receptor (Homo sapiens, UniProt P41594)
T1 construct: expressed in transfected cells; expression induced with doxycycline
Assay: mGluR5 in vitro functional assay (aequorin cell line, inhibition of glutamate EC80 response)
Assay type: cell-based
Conditions: aequorin cell line expressing human mGluR5, reference agonist glutamate at EC80, obtained in duplicate, read-out: IC50
In short: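 Doxycycline-induced (600 ng/mL, 18 h) aequorin cells loaded with coelenterazine h ≥4 h at room temperature; compound preincubated 3 min before glutamate at EC80. Luminescence recorded, normalized to digitonin or 20 mM ATP wells; % inhibition of EC80 response fitted by sigmoidal nonlinear regression.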

T1 sequence (P41594 21-1212): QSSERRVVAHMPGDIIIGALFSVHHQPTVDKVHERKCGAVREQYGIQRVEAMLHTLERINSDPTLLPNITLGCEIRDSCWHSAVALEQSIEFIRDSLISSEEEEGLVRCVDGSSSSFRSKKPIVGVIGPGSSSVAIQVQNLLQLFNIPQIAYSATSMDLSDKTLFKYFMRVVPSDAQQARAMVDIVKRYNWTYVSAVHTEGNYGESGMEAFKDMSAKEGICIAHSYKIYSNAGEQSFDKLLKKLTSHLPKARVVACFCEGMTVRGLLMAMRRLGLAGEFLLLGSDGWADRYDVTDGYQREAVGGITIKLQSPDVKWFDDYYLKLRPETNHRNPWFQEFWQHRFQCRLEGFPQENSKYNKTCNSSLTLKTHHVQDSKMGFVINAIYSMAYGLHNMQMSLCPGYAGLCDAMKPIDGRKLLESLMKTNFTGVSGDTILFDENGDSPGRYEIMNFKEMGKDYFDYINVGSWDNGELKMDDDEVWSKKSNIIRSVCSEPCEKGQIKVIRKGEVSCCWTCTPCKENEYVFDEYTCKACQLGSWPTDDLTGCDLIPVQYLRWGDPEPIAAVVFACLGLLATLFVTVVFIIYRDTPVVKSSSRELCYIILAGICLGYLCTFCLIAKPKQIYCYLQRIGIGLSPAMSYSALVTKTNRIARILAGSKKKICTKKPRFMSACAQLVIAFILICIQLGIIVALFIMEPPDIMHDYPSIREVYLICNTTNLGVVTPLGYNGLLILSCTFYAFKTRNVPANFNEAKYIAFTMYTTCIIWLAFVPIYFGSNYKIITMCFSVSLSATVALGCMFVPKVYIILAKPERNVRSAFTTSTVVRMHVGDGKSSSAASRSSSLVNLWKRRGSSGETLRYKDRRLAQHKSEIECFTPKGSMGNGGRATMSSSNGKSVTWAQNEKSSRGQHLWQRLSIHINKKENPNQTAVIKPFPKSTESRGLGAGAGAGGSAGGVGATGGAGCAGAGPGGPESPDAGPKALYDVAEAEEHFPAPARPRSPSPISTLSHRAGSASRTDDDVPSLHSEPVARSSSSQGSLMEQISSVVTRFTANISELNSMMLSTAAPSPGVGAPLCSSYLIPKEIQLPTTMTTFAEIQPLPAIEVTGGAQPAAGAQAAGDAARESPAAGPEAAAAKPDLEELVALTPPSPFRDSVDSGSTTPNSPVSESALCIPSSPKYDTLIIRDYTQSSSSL

IC50 (Table 2) [nM] | IC50 (Table 1) [nM] | SMILES
< 1000 | – | Clc1cncc(N2CCCc3oc(-c4ccccn4)nc3C2)c1 [Compound 198, 5-(5-Chloropyridin-3-yl)-2-(pyridin-2-yl)-5,6,7,8-tetrahydro-4H-oxazolo[4,5-c]azepine]
– | < 1000 | N#Cc1cc(N2CCc3oc(-c4ccccn4)nc3C2)cc(C(F)(F)F)c1 [Compound 32, 3-(2-(Pyridin-2-yl)-6,7-dihydrooxazolo[4,5-c]pyridin-5(4H)-yl)-5-(trifluoromethyl)benzonitrile]
< 1000 | – | Clc1ccc(Cl)c(N2CCc3oc(-c4ccccn4)nc3C2)c1 [Compound 173, 5-(2,5-Dichlorophenyl)-2-(pyridin-2-yl)-4,5,6,7-tetrahydrooxazolo[4,5-c]pyridine]
< 1000 | – | N#Cc1cc(F)cc(N2CCc3oc(-c4ccncn4)nc3C2)c1 [Compound 118, 3-fluoro-5-(2-(pyrimidin-4-yl)-6,7-dihydrooxazolo[4,5-c]pyridin-5(4H)-yl)benzonitrile]
< 1000 | – | Fc1cc(Cl)cc(N2CCc3oc(-c4ccccn4)nc3C2)c1 [Compound 158, 5-(3-Chloro-5-fluorophenyl)-2-(pyridin-2-yl)-4,5,6,7-tetrahydrooxazolo[4,5-c]pyridine]
– | < 10000 | N#Cc1cc(C#N)cc(N2CCc3nc(-c4ccccn4)oc3C2)c1 [Compound 16, 5-(2-(Pyridin-2-yl)-6,7-dihydrooxazolo[5,4-c]pyridin-5(4H)-yl)isophthalonitrile]
< 1000 | – | Fc1ccc(F)c(N2CCc3oc(-c4ccccn4)nc3C2)c1 [Compound 169, 5-(2,5-Difluorophenyl)-2-(pyridin-2-yl)-4,5,6,7-tetrahydrooxazolo[4,5-c]pyridine]
< 1000 | – | Clc1ccccc1N1CCCc2oc(-c3ccccn3)nc2C1 [Compound 211, 5-(2-Chlorophenyl)-2-(pyridin-2-yl)-5,6,7,8-tetrahydro-4H-oxazolo[4,5-c]azepine]
< 10000 | – | N#Cc1cccc(N2CCc3nc(-c4ccccc4)oc3C2)c1 [Compound 148, 3-(2-Phenyl-6,7-dihydrooxazolo[5,4-c]pyridin-5(4H)-yl)benzonitrile]
– | < 10000 | Clc1ccccc1-c1nc2c(o1)CN(c1ccccn1)CC2 [Compound 68, 2-(2-Chlorophenyl)-5-(pyridin-2-yl)-4,5,6,7-tetrahydrooxazolo[5,4-c]pyridine]
< 1000 | – | Fc1ccc(N2CCc3oc(-c4ccccn4)nc3C2)c(Cl)c1 [Compound 171, 5-(2-Chloro-4-fluorophenyl)-2-(pyridin-2-yl)-4,5,6,7-tetrahydrooxazolo[4,5-c]pyridine]
< 1000 | – | COc1cccc(N2CCc3oc(-c4ccccn4)nc3C2)c1 [Compound 127, 5-(3-methoxyphenyl)-2-(pyridin-2-yl)-4,5,6,7-tetrahydrooxazolo[4,5-c]pyridine]
< 1000 | – | Fc1ccc(-c2nc3c(o2)CCN(c2cccc(Cl)c2)C3)nc1 [Compound 125, 5-(3-chlorophenyl)-2-(5-fluoropyridin-2-yl)-4,5,6,7-tetrahydrooxazolo[4,5-c]pyridine]
